Laboratory results as given in ChEMBL document CHEMBL6083273, “Targeting Periplakin of Novel Benzenesulfonamides as Highly Selective Agonists for the Treatment of Vitiligo” (2024).
The source made the active and inactive calls. The calls are words filed in the database; no cut-off is given here.

Key:
Danio rerio [1] = test: In vivo agonist activity at PPL in zebrafish assessed as increase in mitfa mRNA level at 10 uM by qRT-PCR analysis; type: functional, organism-based
Danio rerio [2] = species on record: Danio rerio; test: Effect on tryptophan metabolism in zebrafish embryo assessed as indole metabolite level at 10 uM by LC/MS analysis; type: functional
Danio rerio [3] = species on record: Danio rerio; test: Binding affinity to PPL in zebrafish incubated for 10 mins by LiP-SMap analysis; conditions: filed as agonist
Danio rerio [4] = species on record: Danio rerio; test: Induction of melanogenesis in zebrafish treated for 24 hrs by absorbance based assay; type: functional, organism-based
Danio rerio [5] = species on record: Danio rerio; test: Effect on tryptophan metabolism in zebrafish embryo assessed as 3-HK metabolite level at 10 uM by LC/MS analysis; type: functional
Danio rerio [6] = species on record: Danio rerio; test: Effect on tryptophan metabolism in zebrafish embryo assessed as IGA metabolite level at 10 uM by LC/MS analysis; type: functional
Danio rerio [7] = species on record: Danio rerio; test: Effect on histidine metabolism in zebrafish embryo at 10 uM by KEGG pathway-enrichment analysis; type: functional, organism-based
Danio rerio [8] = species on record: Danio rerio; test: Effect on tryptophan metabolism in zebrafish embryo assessed as 5-HTOL metabolite level at 10 uM by LC/MS analysis; type: functional
Danio rerio [9] = species on record: Danio rerio; test: Effect on tryptophan metabolism in zebrafish embryo assessed as IPA metabolite level at 10 uM by LC/MS analysis; type: functional
Danio rerio [10] = species on record: Danio rerio; test: Effect on tryptophan metabolism in zebrafish embryo assessed as IAA metabolite level at 10 uM by LC/MS analysis; type: functional
Danio rerio [11] = species on record: Danio rerio; test: Effect on tryptophan metabolism in zebrafish embryo assessed as IA metabolite level at 10 uM by LC/MS analysis; type: functional
Danio rerio [12] = species on record: Danio rerio; test: Effect on tryptophan metabolism in zebrafish embryo assessed as IAN metabolite level at 10 uM by LC/MS analysis; type: functional
Danio rerio [13] = species on record: Danio rerio; test: Effect on cAMP content in zebrafish harboring PPL-/- at 10 uM by ELISA; type: functional, organism-based
Danio rerio [14] = test: In vivo agonist activity at PPL in zebrafish assessed as increase in mitfa mRNA level at 10 uM by ISH analysis; type: functional, organism-based
Danio rerio [15] = test: In vivo agonist activity at PPL in zebrafish assessed as increase in Tyr mRNA level at 10 uM by ISH analysis; type: functional, organism-based
Danio rerio [16] = species on record: Danio rerio; test: Effect on tryptophan metabolism in zebrafish embryo assessed as NAS metabolite level at 10 uM by LC/MS analysis; type: functional
Danio rerio [17] = species on record: Danio rerio; test: Effect on tryptophan metabolism in zebrafish embryo assessed as Xa metabolite level at 10 uM by LC/MS analysis; type: functional
Danio rerio [18] = species on record: Danio rerio; test: Induction of melanogenesis in zebrafish at 10 uM treated for 24 hrs by absorbance based assay; type: functional, organism-based
Danio rerio [19] = species on record: Danio rerio; test: Induction of melanogenesis in zebrafish harboring PPL-/- at 10 uM treated for 24 hrs by absorbance based assay; type: functional, organism-based
Danio rerio [20] = test: In vivo agonist activity at PPL in zebrafish assessed as increase in cAMP content at 10 uM by ELISA; type: functional, organism-based
Danio rerio [21] = species on record: Danio rerio; test: Induction of melanogenesis in zebrafish at 40 uM treated for 24 hrs by absorbance based assay relative to control; type: functional
Danio rerio [22] = species on record: Danio rerio; test: Effect on tryptophan metabolism in zebrafish embryo assessed as 3-HAA metabolite level at 10 uM by LC/MS analysis; type: functional
Danio rerio [23] = species on record: Danio rerio; test: Effect on tryptophan metabolism in zebrafish embryo assessed as LE metabolite level at 10 uM by LC/MS analysis; type: functional
Danio rerio [24] = species on record: Danio rerio; test: Effect on tryptophan metabolism in zebrafish embryo assessed as 5-HTP metabolite level at 10 uM by LC/MS analysis; type: functional
Mus musculus [25] = test: In vivo agonist activity at PPL in skin of hydroquinone-induced vitiligo C57BL/6J mouse at 1.5 % administered topically for 20 days by immunofluorescence analysis; type: functional, organism-based; conditions: time 20.0 day
Danio rerio [26] = test: In vivo agonist activity at PPL in zebrafish assessed as increase in Dct mRNA level at 10 uM by ISH analysis; type: functional, organism-based
Danio rerio [27] = species on record: Danio rerio; test: Effect on tryptophan metabolism in zebrafish embryo assessed as skatole metabolite level at 10 uM by LC/MS analysis; type: functional
Danio rerio [28] = species on record: Danio rerio; test: Effect on tryptophan metabolism in zebrafish embryo assessed as AA metabolite level at 10 uM by LC/MS analysis; type: functional
Danio rerio [29] = species on record: Danio rerio; test: Effect on tryptophan metabolism in zebrafish embryo assessed as ILA metabolite level at 10 uM by LC/MS analysis; type: functional
Mus musculus [30] = test: Induction of melanogenesis in hydroquinone-induced vitiligo C57BL/6J mouse assessed as darker hair color administered topically for 20 days; type: functional, organism-based; conditions: route top, time 20.0 day
Danio rerio [31] = species on record: Danio rerio; test: Effect on tryptophan metabolism in zebrafish embryo assessed as KYNA metabolite level at 10 uM by LC/MS analysis; type: functional
Danio rerio [32] = species on record: Danio rerio; test: Induction of melanogenesis in zebrafish treated for 24 hrs by absorbance based assay (reference value: 98.2 to 100.3 %); type: functional
Danio rerio [33] = species on record: Danio rerio; test: Effect on pyrimidine metabolism in zebrafish embryo at 10 uM by KEGG pathway-enrichment analysis; type: functional, organism-based
Mus musculus [34] = test: Induction of melanogenesis in hydroquinone-induced vitiligo C57BL/6J mouse at 1.5 % administered topically for 20 days by Masson-Fontana staining based analysis; type: functional, organism-based; conditions: route top, time 20.0 day
Danio rerio [35] = species on record: Danio rerio; test: Effect on tryptophan metabolism in zebrafish embryo assessed as 5-HIAA metabolite level at 10 uM by LC/MS analysis; type: functional
[36] = Induction of melanogenesis in co-culture of HEK293 cells transfected with PPL (unknown origin) and mouse B16-F10 cells at 10 uM incubated for 48 hrs by Masson-Fontana staining based analysis relative to control; type: functional
Danio rerio [37] = species on record: Danio rerio; test: Effect on mitfa mRMA level in zebrafish harboring PPL-/- at 10 uM by qRT-PCR analysis; type: functional
[38] = Induction of melanogenesis in co-culture of HEK293 cells and mouse B16-F10 cells at 10 uM incubated for 48 hrs by Masson-Fontana staining based analysis relative to control; type: functional
Danio rerio [39] = species on record: Danio rerio; test: Effect on tryptophan metabolism in zebrafish embryo assessed as Trp metabolite level at 10 uM by LC/MS analysis; type: functional
Danio rerio [40] = species on record: Danio rerio; test: Effect on tryptophan metabolism in zebrafish embryo assessed as ICA metabolite level at 10 uM by LC/MS analysis; type: functional
Danio rerio [41] = species on record: Danio rerio; test: Effect on tryptophan metabolism in zebrafish embryo assessed as NA metabolite level at 10 uM by LC/MS analysis; type: functional
Danio rerio [42] = species on record: Danio rerio; test: Effect on purine metabolism in zebrafish embryo at 10 uM by KEGG pathway-enrichment analysis; type: functional, organism-based
Danio rerio [43] = species on record: Danio rerio; test: Induction of melanogenesis in wild-type zebrafish at 10 uM treated for 24 hrs by absorbance based assay; type: functional, organism-based
Danio rerio [44] = species on record: Danio rerio; test: Binding affinity to PPL in zebrafish at 10 uM by pull down assay; conditions: filed as agonist
Danio rerio [45] = species on record: Danio rerio; test: Effect on tryptophan metabolism in zebrafish embryo assessed as indican metabolite level at 10 uM by LC/MS analysis; type: functional

Cc1cc(-c2ccc([C@H](C)Nc3nccc(NS(=O)(=O)c4cccc([N+](=O)[O-])c4)n3)cc2)ccc1F
Activity (Danio rerio [1]): Active | Activity (Danio rerio [2]): 635.89 nmol/kg | Activity (Danio rerio [3]): Active | Activity (Danio rerio [4]): Dose-dependent-effect | Activity (Danio rerio [5]): 81.53 nmol/kg | Activity (Danio rerio [6]): 1.2 nmol/kg | Activity (Danio rerio [7]): Active | Activity (Danio rerio [8]): 0.03 nmol/kg | Activity (Danio rerio [9]): 20.08 nmol/kg | Activity (Danio rerio [10]): 4.89 nmol/kg | Activity (Danio rerio [11]): 21.8 nmol/kg | Activity (Danio rerio [12]): 16.28 nmol/kg | Activity (Danio rerio [13]): No effect | Activity (Danio rerio [14]): Active | Activity (Danio rerio [15]): Active | Activity (Danio rerio [16]): 0.07 nmol/kg | Activity (Danio rerio [17]): 399.41 nmol/kg | Activity (Danio rerio [18]): Active | Activity (Danio rerio [19]): inactive | Activity (Danio rerio [20]): Active | Emax at 40 µM (Danio rerio [21]): 197% | Activity (Danio rerio [22]): 3.14 nmol/kg | Activity (Danio rerio [23]): 41.42 nmol/kg | Activity (Danio rerio [24]): 41.08 nmol/kg | Activity (Mus musculus [25]): Active | Activity (Danio rerio [26]): Active | Activity (Danio rerio [27]): 527.99 nmol/kg | Activity (Danio rerio [28]): 15.09 nmol/kg | Activity (Danio rerio [29]): 109.9 nmol/kg | Activity (Mus musculus [30]): Dose-dependent-effect | Activity (Danio rerio [31]): 8.23 nmol/kg | Activity (Danio rerio [32]): 171.43% | Activity (Danio rerio [33]): Active | Activity (Mus musculus [34]): Active; Calcipotriene And Ruxolitinib Was Considerably Less Than The Compound At Concentration Of 1.5% | Activity (Danio rerio [35]): 76.93 nmol/kg | Activity [36]: 137.24% | Activity (Danio rerio [37]): No effect | Activity [38]: 107.32% | Activity (Danio rerio [39]): 203749.8 nmol/kg | Activity (Danio rerio [40]): 24.76 nmol/kg | Activity (Danio rerio [41]): 2295.89 nmol/kg | Activity (Danio rerio [42]): Active | Activity (Danio rerio [43]): Active | Activity (Danio rerio [44]): Active

Cc1cc(-c2ccc([C@H](C)Nc3nccc(NS(=O)(=O)c4ccc([N+](=O)[O-])cc4)n3)cc2)ccc1F
Activity (Danio rerio [2]): 788.07 nmol/kg | Activity (Danio rerio [5]): 93.63 nmol/kg | Activity (Danio rerio [45]): 0.95 nmol/kg | Activity (Danio rerio [6]): 2.84 nmol/kg | Activity (Danio rerio [8]): 0.03 nmol/kg | Activity (Danio rerio [9]): 19.38 nmol/kg | Activity (Danio rerio [10]): 3.45 nmol/kg | Activity (Danio rerio [11]): 22 nmol/kg | Activity (Danio rerio [12]): 17.69 nmol/kg | Activity (Danio rerio [16]): 0.06 nmol/kg | Activity (Danio rerio [17]): 430.99 nmol/kg | Activity (Danio rerio [22]): 3.54 nmol/kg | Activity (Danio rerio [23]): 32.11 nmol/kg | Activity (Danio rerio [24]): 54.62 nmol/kg | Activity (Danio rerio [27]): 582.83 nmol/kg | Activity (Danio rerio [28]): 14.25 nmol/kg | Activity (Danio rerio [29]): 105.98 nmol/kg | Activity (Danio rerio [32]): 108.21% | Activity (Danio rerio [35]): 55.63 nmol/kg | Activity (Danio rerio [39]): 206300.5 nmol/kg | Activity (Danio rerio [40]): 38.27 nmol/kg | Activity (Danio rerio [41]): 2107.11 nmol/kg
